Radiochemical purity maintained and background uptake data for one molecule are collected here from patent US20260184667A1, “CGMP-COMPLIANT AUTOMATED [18F]FSPG PRODUCTION FOR CLINICAL EXAMINATION” (BOARD OF REGENTS, THE UNIVERSITY OF TEXAS SYSTEM, priority 2022, published 2026).

A short description of data set [1]: Radiochemical purity on storage at room temperature (analytical reverse phase-HPLC). In kind it is physicochemical. The settings on record: stored at room temperature, for 5 hours after end of synthesis (FIG. 3). As for the experimental part: The radiochemical purity of the [^18F]FSPG composition was tested at the end of synthesis and up to 5 hours after being stored at room temperature. Analytical reverse phase-HPLC was performed on an Agilent 1260 HPLC system equipped with a 1200 Series Diode Array Detector and a Raytest GABI Star NaI (TL) scintillation detector. The following process parameters were used: • Column: Phenomenex Luna C-18 (2) 250 mm×4.6 mm (5 μm) • Mobile Phase A: 40 μM aqueous disodium phosphate • Mobile Phase B: Acetonitrile/Methanol/Water (45:45:10) (% w/v) • Flow rate: 1.5 ml/min • Gradient: • Initial: 100% Mobile Phase A, 0% Mobile Phase B • 2 min: 96% Mobile Phase A, 4% Mobile Phase B • 5 min: 88% Mobile Phase A, 12% Mobile Phase B • 15 min: 88% Mobile Phase A, 12% Mobile Phase B • 20 min: 40% Mobile Phase A, 60% Mobile Phase B • 22 min: 0% Mobile Phase A, 100% Mobile Phase B • 24 min: 0% Mobile Phase A, 100% Mobile Phase B • 25 min: 100% Mobile Phase A, 0% Mobile Phase B • 30 min: 100% Mobile Phase A, 0% Mobile Phase B • Total Run Time: 35 minutes • UV detector: 340 nm • [^18F]FSPG solution (80 μl) was mixed with o-phthaldialdehyde reagent solution (20 μl). The mixture sat for 1 min prior to the HPLC analysis.

Data set [2] has as its target T1, cystine/glutamate antiporter (Xc^−) (Homo sapiens, UniProt Q9UPY5).
T1 construct: from tissue; host or cells: Human tissues and tumours in vivo (healthy volunteers; patients with NSCLC, hepatocellular carcinoma or brain tumours)
T1 sequence (Q9UPY5 1-501): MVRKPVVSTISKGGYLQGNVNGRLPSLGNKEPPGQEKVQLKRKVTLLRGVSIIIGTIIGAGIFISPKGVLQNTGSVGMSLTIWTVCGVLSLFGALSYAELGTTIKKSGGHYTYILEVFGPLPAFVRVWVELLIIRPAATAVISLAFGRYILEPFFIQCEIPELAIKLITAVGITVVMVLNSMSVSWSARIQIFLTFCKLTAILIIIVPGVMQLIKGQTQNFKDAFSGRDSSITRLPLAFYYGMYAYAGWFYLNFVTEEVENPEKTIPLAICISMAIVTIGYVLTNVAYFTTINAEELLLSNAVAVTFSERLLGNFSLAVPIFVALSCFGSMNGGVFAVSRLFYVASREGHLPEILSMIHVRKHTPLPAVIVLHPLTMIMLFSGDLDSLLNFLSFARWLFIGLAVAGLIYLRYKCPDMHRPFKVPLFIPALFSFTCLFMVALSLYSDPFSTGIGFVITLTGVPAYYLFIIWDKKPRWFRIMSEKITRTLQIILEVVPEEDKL
T1 sequence (P08195 1-529 partner): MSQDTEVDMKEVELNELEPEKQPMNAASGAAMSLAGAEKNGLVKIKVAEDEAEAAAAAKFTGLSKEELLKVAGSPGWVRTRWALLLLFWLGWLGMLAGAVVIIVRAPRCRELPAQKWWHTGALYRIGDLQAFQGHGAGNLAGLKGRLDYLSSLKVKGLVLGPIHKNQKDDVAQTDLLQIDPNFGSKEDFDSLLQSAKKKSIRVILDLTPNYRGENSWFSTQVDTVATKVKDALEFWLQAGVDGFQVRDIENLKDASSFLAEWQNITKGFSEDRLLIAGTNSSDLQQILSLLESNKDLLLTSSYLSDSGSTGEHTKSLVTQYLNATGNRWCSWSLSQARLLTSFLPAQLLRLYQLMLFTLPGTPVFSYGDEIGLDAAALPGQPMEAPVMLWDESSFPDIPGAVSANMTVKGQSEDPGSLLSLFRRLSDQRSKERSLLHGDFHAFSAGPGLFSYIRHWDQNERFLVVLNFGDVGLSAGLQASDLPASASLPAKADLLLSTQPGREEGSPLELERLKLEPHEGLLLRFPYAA
As to conditions: PET; healthy volunteers and patients with non-small cell lung cancer, hepatocellular carcinoma, brain tumors; cited from earlier work.

For the molecule `N[C@@H](C[C@H](CCC[18F])C(=O)O)C(=O)O` [[^18F]FSPG, (S)-4-(3-^18F-fluoropropyl)-L-glutamic acid], the radiochemical purity maintained in data set [1] is listed as > 95%. In addition, in data set [2], the background uptake entry was “low background uptake in the brain, lung, and bowel”.
